Experimental data taken from the supplement of paper PMC11061612.

Assays:
Olaparib = compound: O=C(c1cc(Cc2n[nH]c(=O)c3ccccc23)ccc1F)N1CCN(C(=O)C2CC2)CC1 [Olaparib]; settings: max 10 µM
How it was run: (§1)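 Cancer cell lines were dosed for 72 hours (final DMSO typically 0.2%) after 24 hours at 37°C and 5% CO2 in 1536-well plates containing 7.5 μl DMEM/F12 or RPMI with 10% FBS. Viability came from CellTiter-Glo 2.0 luminescence, scaled between blank-well and DMSO-well means, and dose responses were fitted to a two-parameter logistic curve with a non-linear mixed effects model. The single-agent IC50 was obtained from this fit.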

Crizotinib = compound: C[C@@H](Oc1cc(-c2cnn(C3CCNCC3)c2)cnc1N)c1c(Cl)ccc(F)c1Cl [Crizotinib]; settings: max 10 µM
How it was run: as §1

Prexasertib = compound: COc1cccc(OCCCN)c1-c1cc(Nc2cnc(C#N)cn2)n[nH]1 [Prexasertib]; settings: max 1 µM
How it was run: as §1

Doxorubicin = compound: COc1cccc2c1C(=O)c1c(O)c3c(c(O)c1C2=O)C[C@@](O)(C(=O)CO)C[C@@H]3O[C@H]1C[C@H](N)[C@H](O)[C@H](C)O1 [Doxorubicin]; settings: max 1 µM
How it was run: as §1

Alisertib = compound: COc1cc(Nc2ncc3c(n2)-c2ccc(Cl)cc2C(c2c(F)cccc2OC)=NC3)ccc1C(=O)O [Alisertib]; settings: max 10 µM
How it was run: as §1

SN-38 = compound: CCc1c2c(nc3ccc(O)cc13)-c1cc3c(c(=O)n1C2)COC(=O)[C@]3(O)CC [SN-38]; settings: max 0.3 µM
How it was run: as §1

Trametinib = compound: CC(=O)Nc1cccc(-n2c(=O)n(C3CC3)c(=O)c3c(Nc4ccc(I)cc4F)n(C)c(=O)c(C)c32)c1 [Trametinib]; settings: max 1 µM
How it was run: as §1

AZD8186 = compound: C[C@@H](Nc1cc(F)cc(F)c1)c1cc(C(=O)N(C)C)cc2c(=O)cc(N3CCOCC3)oc12 [AZD8186]; settings: max 10 µM
How it was run: as §1

AZD1775 = compound: C=CCn1c(=O)c2cnc(Nc3ccc(N4CCN(C)CC4)cc3)nc2n1-c1cccc(C(C)(C)O)n1 [AZD1775]; settings: max 3 µM
How it was run: as §1

AZD5153 = compound: COc1nnc2ccc(N3CCC(c4ccc(OCCN5CCN(C)C(=O)[C@H]5C)cc4)CC3)nn12 [AZD5153]; settings: max 1 µM
How it was run: as §1

SRA737 = compound: N#Cc1cnc(Nc2cc(NC[C@H]3CNCCO3)c(C(F)(F)F)cn2)cn1 [SRA737]; settings: max 10 µM
How it was run: as §1

Selumetinib = compound: Cn1cnc2c(F)c(Nc3ccc(Br)cc3Cl)c(C(=O)NOCCO)cc21 [Selumetinib]; settings: max 10 µM
How it was run: as §1

MK-2206 = compound: NC1(c2ccc(-c3nc4ccn5c(=O)[nH]nc5c4cc3-c3ccccc3)cc2)CCC1 [MK-2206]; settings: max 10 µM
How it was run: as §1

Taselisib = compound: Cc1nc(-c2cn3c(n2)-c2ccc(-c4cnn(C(C)(C)C(N)=O)c4)cc2OCC3)n(C(C)C)n1 [Taselisib]; settings: max 10 µM
How it was run: as §1

Lapatinib = compound: CS(=O)(=O)CCNCc1ccc(-c2ccc3ncnc(Nc4ccc(OCc5cccc(F)c5)c(Cl)c4)c3c2)o1 [Lapatinib]; settings: max 10 µM
How it was run: as §1

Gefitinib = compound: COc1cc2ncnc(Nc3ccc(F)c(Cl)c3)c2cc1OCCCN1CCOCC1 [Gefitinib]; settings: max 10 µM
How it was run: as §1

Savolitinib = compound: C[C@@H](c1ccc2nccn2c1)n1nnc2ncc(-c3cnn(C)c3)nc21 [Savolitinib]; settings: max 1 µM
How it was run: as §1

Dasatinib = compound: CC1=C(C(=CC=C1)Cl)NC(=O)C2=CN=C(S2)NC3=CC(=NC(=N3)C)N4CCN(CC4)CCO [Dasatinib]; settings: max 2 µM
How it was run: as §1

SG3199 = compound: CC1=CN2[C@@H](C1)C=NC3=CC(=C(C=C3C2=O)OC)OCCCCCOC4=C(C=C5C(=C4)N=C[C@@H]6CC(=CN6C5=O)C)OC [SG3199]; settings: max 0.001 µM
How it was run: as §1

AZD5363 = compound: C1CN(CCC1(C(=O)N[C@@H](CCO)C2=CC=C(C=C2)Cl)N)C3=NC=NC4=C3C=CN4 [AZD5363]; settings: max 10 µM
How it was run: as §1

AZD6738 = compound: C[C@@H]1COCCN1C2=NC(=NC(=C2)C3(CC3)[S@](=N)(=O)C)C4=C5C=CNC5=NC=C4 [AZD6738]; settings: max 10 µM
How it was run: as §1

AZD4320 = compound: CN(CC[C@H](CSC1=CC=CC=C1)NC2=C(C=C(C=C2)S(=O)(=O)NC(=O)C3=CC=C(C=C3)N4CCC(CC4)[C@H](C5=CC=CC=C5C6=CC=C(C=C6)Cl)O)S(=O)(=O)C(F)(F)F)CCO [AZD4320]; settings: max 1 µM
How it was run: as §1

[1] = compound: O=C(Nc1ccc2[nH]nc(-c3ccncc3)c2c1)[C@@H]1CCN(CC(=O)N2CCN(c3ccc(-c4ncccn4)cc3)CC2)C1; settings: max 5 µM
How it was run: as §1

Etoposide = compound: COc1cc([C@@H]2c3cc4c(cc3[C@@H](O[C@@H]3O[C@@H]5CO[C@@H](C)O[C@H]5[C@H](O)[C@H]3O)[C@H]3COC(=O)[C@H]23)OCO4)cc(OC)c1O [Etoposide]; settings: max 10 µM
How it was run: as §1

Venetoclax = compound: CC1(C)CCC(CN2CCN(c3ccc(C(=O)NS(=O)(=O)c4ccc(NCC5CCOCC5)c([N+](=O)[O-])c4)c(Oc4cnc5[nH]ccc5c4)c3)CC2)=C(c2ccc(Cl)cc2)C1 [Venetoclax]; settings: max 1 µM
How it was run: as §1

AZD1390 = compound: CC(C)n1c(=O)n(C)c2cnc3cc(F)c(-c4ccc(OCCCN5CCCCC5)nc4)cc3c21 [AZD1390]; settings: max 0.3 µM
How it was run: as §1

Gemcitabine = compound: Nc1ccn([C@@H]2O[C@H](CO)[C@@H](O)C2(F)F)c(=O)n1 [Gemcitabine]; settings: max 0.3 µM
How it was run: as §1

AZD0156 = compound: CN(C)CCCOc1ccc(-c2ccc3ncc4c(c3c2)n(C2CCOCC2)c(=O)n4C)cn1 [AZD0156]; settings: max 3 µM
How it was run: as §1

AZD5991 = compound: Cc1c2c(nn1C)CSCc1cc(n(C)n1)CSc1cc(c3ccccc3c1)OCCCc1c(C(=O)O)n(C)c3c-2c(Cl)ccc13 [AZD5991]; settings: max 1 µM
How it was run: as §1

Paclitaxel = compound: CC(=O)O[C@H]1C(=O)[C@@]2(C)[C@H]([C@H](OC(=O)c3ccccc3)[C@]3(O)C[C@H](OC(=O)[C@H](O)[C@@H](NC(=O)c4ccccc4)c4ccccc4)C(C)=C1C3(C)C)[C@]1(OC(C)=O)CO[C@@H]1C[C@@H]2O [Paclitaxel]; settings: max 3 µM
How it was run: as §1

AZD2811 = compound: CCN(CCO)CCCOc1ccc2c(Nc3cc(CC(=O)Nc4cccc(F)c4)[nH]n3)ncnc2c1 [AZD2811]; settings: max 1 µM
How it was run: as §1

AZD7648 = compound: Cc1cc2ncnn2cc1Nc1ncc2c(n1)n(C1CCOCC1)c(=O)n2C [AZD7648]; settings: max 10 µM
How it was run: as §1

5-Fluorouracil = compound: O=c1[nH]cc(F)c(=O)[nH]1 [5-Fluorouracil]; settings: max 20 µM
How it was run: as §1

Palbociclib = compound: CC(=O)c1c(C)c2cnc(Nc3ccc(N4CCNCC4)cn3)nc2n(C2CCCC2)c1=O [Palbociclib]; settings: max 10 µM
How it was run: as §1

Carboplatin = compound: C1CC(C1)(C(=O)[O-])C(=O)[O-].N.N.[Pt+2] [Carboplatin]; settings: max 10 µM
How it was run: as §1

| Cell Line | IC50, cell viability 72 h (Olaparib) [nM] | IC50, cell viability 72 h (Crizotinib) [nM] | IC50, cell viability 72 h (Prexasertib) [nM] | IC50, cell viability 72 h (Doxorubicin) [nM] | IC50, cell viability 72 h (Alisertib) [nM] | IC50, cell viability 72 h (SN-38) [nM] | IC50, cell viability 72 h (Trametinib) [nM] | IC50, cell viability 72 h (AZD8186) [nM] | IC50, cell viability 72 h (AZD1775) [nM] | IC50, cell viability 72 h (AZD5153) [nM] | IC50, cell viability 72 h (SRA737) [nM] | IC50, cell viability 72 h (Selumetinib) [nM] | IC50, cell viability 72 h (MK-2206) [nM] | IC50, cell viability 72 h (Taselisib) [nM] | IC50, cell viability 72 h (Lapatinib) [nM] | IC50, cell viability 72 h (Gefitinib) [nM] | IC50, cell viability 72 h (Savolitinib) [nM] | IC50, cell viability 72 h (Dasatinib) [nM] | IC50, cell viability 72 h (SG3199) [nM] | IC50, cell viability 72 h (AZD5363) [nM] | IC50, cell viability 72 h (AZD6738) [nM] | IC50, cell viability 72 h (AZD4320) [nM] | IC50, cell viability 72 h [1] [nM] | IC50, cell viability 72 h (Etoposide) [nM] | IC50, cell viability 72 h (Venetoclax) [nM] | IC50, cell viability 72 h (AZD1390) [nM] | IC50, cell viability 72 h (Gemcitabine) [nM] | IC50, cell viability 72 h (AZD0156) [nM] | IC50, cell viability 72 h (AZD5991) [nM] | IC50, cell viability 72 h (Paclitaxel) [nM] | IC50, cell viability 72 h (AZD2811) [nM] | IC50, cell viability 72 h (AZD7648) [nM] | IC50, cell viability 72 h (5-Fluorouracil) [nM] | IC50, cell viability 72 h (Palbociclib) [nM] | IC50, cell viability 72 h (Carboplatin) [nM] |
| --- | --- | --- | --- | --- | --- | --- | --- | --- | --- | --- | --- | --- | --- | --- | --- | --- | --- | --- | --- | --- | --- | --- | --- | --- | --- | --- | --- | --- | --- | --- | --- | --- | --- | --- | --- |
| NCI-H1792 (Lung Adenocarcinoma) | > 10000 | 6070 | 97.9 | 558 | 5110 | 159 | 83.5 | > 10000 | 730 | 561 | > 10000 | > 10000 | > 10000 | 4880 | > 10000 | > 10000 | > 1000 | 1550 | > 1 | > 10000 | 4810 | > 1000 | > 5000 | 7110 | > 1000 | > 300 | 34.5 | > 3000 | > 1000 | 5.92 | > 1000 | > 10000 | 7720 | > 10000 | > 10000 |
| NCI-H2818 (Mesothelioma) | > 10000 | > 10000 | > 1000 | > 1000 | > 10000 | > 300 | > 1000 | > 10000 | > 3000 | > 1000 | > 10000 | > 10000 | > 10000 | > 10000 | > 10000 | > 10000 | > 1000 | > 2000 | > 1 | > 10000 | > 10000 | > 1000 | > 5000 | > 10000 | > 1000 | > 300 | > 300 | > 3000 | > 1000 | 745 | > 1000 | > 10000 | > 20000 | > 10000 | > 10000 |
| SR (Other Blood Carcinomas) | > 10000 | 251 | 5.88 | 26.1 | 50.3 | 3.3 | > 1000 | > 10000 | 187 | 86.4 | 1400 | > 10000 | > 10000 | > 10000 | > 10000 | > 10000 | > 1000 | > 2000 | > 1 | > 10000 | 1750 | 677 | > 5000 | 126 | 722 | > 300 | 45.3 | > 3000 | 352 | 5.75 | 43.5 | > 10000 | 4320 | 3000 | > 10000 |
| SW837 (Colorectal Carcinoma) | > 10000 | > 10000 | 186 | > 1000 | > 10000 | > 300 | 300 | > 10000 | 2240 | 717 | > 10000 | 9890 | > 10000 | > 10000 | > 10000 | > 10000 | > 1000 | > 2000 | > 1 | > 10000 | > 10000 | > 1000 | > 5000 | > 10000 | > 1000 | > 300 | > 300 | > 3000 | > 1000 | 582 | > 1000 | > 10000 | > 20000 | > 10000 | > 10000 |
| SW1417 (Colorectal Carcinoma) | > 10000 | > 10000 | 567 | > 1000 | > 10000 | 182 | 51.5 | > 10000 | > 3000 | > 1000 | > 10000 | 4870 | > 10000 | > 10000 | > 10000 | > 10000 | > 1000 | > 2000 | > 1 | > 10000 | > 10000 | > 1000 | 1350 | > 10000 | > 1000 | > 300 | > 300 | > 3000 | > 1000 | 422 | > 1000 | > 10000 | > 20000 | > 10000 | > 10000 |
